The source of these data is US20130288331A1, “PEPTIDOMIMETIC COMPOUNDS AND RELATED METHODS” (priority 2012, published 2013).

For assay [1], the target named is T1, HIV-1 protease (Human immunodeficiency virus type 1 group M subtype B, UniProt P04585). The assay is described as follows: FRET assay of HIV-1 protease inhibitory activity (IC50). It is filed as biochemical. Particulars: for IC50: HIV-1 protease 10.2 nM, 15 min preincubation at 25° C., EDANS/DABCYL substrate for C-protected, HiLyte Fluor 488/QXL 520 substrate for deprotected inhibitors. As for the experimental part:
The HIV-1 protease inhibitory activities of the compounds were determined by a FRET method. HIV-1 protease stock solution was diluted with assay buffer (0.1M sodium acetate, 1.0 M sodium chloride, 1.0 mM EDTA, 1.0 mM DTT, 10% DMSO, and 1.0 mg/mL BSA, pH 4.7). All inhibitors were dissolved in DMSO, and diluted to appropriate concentrations with deionized water such that the maximum conc. of DMSO in the buffer was 8.5%. EDANS/DABCYL-based FRET peptide substrate (Ex/Em=340/490 nm) solution in SensoLyte® 490 HIV Protease Assay Kit (Cat. #71127) and HiLyte Fluor™ 488/QXL™ 520-based FRET peptide substrate (Ex/Em=490/520 nm) solution in SensoLyte® 520 HIV Protease Assay Kit (Cat. #71147) were purchased from Anaspec. We needed to use these two different substrates because the compounds without C-protection (throughout this means protection on the oxygen at the C-terminus, a terminal OH) have weak fluorescence that interferes with that from the EDANS/DABCYL-based FRET peptide substrate (Ex/Em=340/490 nm) so an alternative substrate was used.
For the determination of IC50 values, HIV-1 protease (40 μL, 10.2 nM final concentration) and inhibitors (10 μL) were incubated for 15 min at 25° C. Substrate solutions (50 μL) in the buffer were added into the incubated solution to initiate the reaction. EDANS/DABCYL-based FRET peptide substrate was used for C-protected inhibitors, and HiLyte Fluor™ 488/QXL™ 520-based FRET peptide substrate was used for deprotected inhibitors. The total assay volume was 100 μL. Fluorescence was monitored for 5 min at 30° C. in a fluorescence microplate reader (BioTek) at Ex/Em=340/490 nm for ^tBu-protected inhibitors, and Ex/Em=490/520 nm for deprotected inhibitors. The initial velocities were plotted against log [inhibitor] and a sigmoidal curve was fitted to the data points using Graphpad Prism 5 software to obtain IC50 values.

For assay [2], the target named is T1, HIV-1 protease. The assay is described as follows: Zhang-Poorman kinetic assay of HIV-1 protease dimerization inhibition. The format is biochemical. Particulars: for Ki: calculated from y-intercepts using the Zhang-Poorman equation, HIV-1 protease 0.6 to 5.1 nM. As to the method:
If a compound acts as a dimerization inhibitor, the Zhang-Poorman plot gives a line with a slope similar to that obtained for the uninhibited control but with a different intercept; active-site inhibitors yield different slopes compared with the uninhibited control. For this assay, HIV-1 protease was used at concentrations from 0.6 to 5.1 nM. Substrate solutions were diluted to ¼ solution from the original solution, and then used for the kinetic assay. HIV-1 protease (40 μL) was incubated with or without an inhibitor (10 μL) at the desired concentration for 15 min at 25° C. The diluted substrate solution (50 μL) was added to the incubated solution. Fluorescence was monitored for 15 min at 30° C. in a fluorescence microplate reader (BioTek) at Ex/Em=340/490 nm for C-protected inhibitors, and Ex/Em=490/520 nm for deprotected inhibitors.
Slopes for 1lai-H (8.2±0.6) and 1fla-H (9.3±1.2) compared with uninhibited HIV-1 (9.0±0.6) have different y-intercepts (1lai-H y-intercepts 0.19, 1fla-H y-intercepts 0.73, control y-intercepts 0.013). y-Intercepts of uninhibited HIV-1 have different values between experiments for C-protected and deprotected compounds because the substrates used in the assay are different (see above). The results are consistent with 1-H-1-^tBu (side-chains as indicated above) acting as dimerization inhibitors. We note that it has been reported that inhibition of HIV-1 protease activities by dimerization inhibitors is dependent on the time of pre-incubation with the enzyme and inversely dependent on enzyme concentration; consequently, these factors must be standardized if comparing our data with those from different labs.

Assay [3] concerns the target GAPDH (Homo sapiens, UniProt P04406). To be noted: rescue from apoptosis in vitro; cited from earlier work.
[4] abbreviates: FIG. 2A, C-protected compounds, Ex/Em=340/490 nm substrate, control 0.42.
Setting [5] is: FIG. 2A, C-protected compounds, Ex/Em=340/490 nm substrate, uninhibited HIV-1 9.7±0.7.
Where [6] appears, read: FIG. 2B, deprotected compounds, Ex/Em=490/520 nm substrate, control 0.013.
Setting [7] is: FIG. 2B, deprotected compounds, Ex/Em=490/520 nm substrate, uninhibited HIV-1 9.0±0.6.

Sequence of GAPDH (P04406 whole entry, species assumed): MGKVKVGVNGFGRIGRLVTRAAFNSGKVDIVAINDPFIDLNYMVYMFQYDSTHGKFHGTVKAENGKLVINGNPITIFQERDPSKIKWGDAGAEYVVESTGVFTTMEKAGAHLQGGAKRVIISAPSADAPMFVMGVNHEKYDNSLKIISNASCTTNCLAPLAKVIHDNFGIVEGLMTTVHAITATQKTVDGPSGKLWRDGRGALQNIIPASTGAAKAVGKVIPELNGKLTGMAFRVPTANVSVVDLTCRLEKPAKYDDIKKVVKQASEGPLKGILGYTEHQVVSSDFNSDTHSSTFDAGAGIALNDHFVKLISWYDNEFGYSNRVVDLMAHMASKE

Regarding `CC(C)C[C@H]1C(N2CC[C@H](N3C(=O)C=C(OC(C)(C)C)[C@@H]3C)C2)=CC(=O)N1[C@H]1CCN(C2=CC(=O)N[C@H]2Cc2ccccc2)C1` [1fla-^tBu, (S)-1-((S)-1-((S)-2-benzyl-5-oxo-2,5-dihydro-1H-pyrrol-3-yl)pyrrolidin-3-yl)-4-((S)-3-((S)-3-(tert-butoxy)-2-methyl-5-oxo-2,5-dihydro-1H-pyrrol-1-yl)pyrrolidin-1-yl)-5-isobutyl-1H-pyrrol-2(5H)-one], the IC50 (usually the concentration needed to halve the response being measured) in assay [1] is 54.9 ± 6 µM. Further, the “y-intercept of Zhang-Poorman plot” value in assay [2] (setting [4]) is on record as 1.4. In assay [2] (setting [5]), the “slope of Zhang-Poorman plot” value was determined as 9.5±0.6. Further, in assay [2], the Ki – broadly, a measure of affinity in units of concentration, obtained from inhibition or displacement – was 21 ± 2.1 µM.
The matching figures for `CC[C@H](C)[C@H]1C(OC(C)(C)C)=CC(=O)N1[C@H]1CCN(C2=CC(=O)N([C@H]3CCN(C4=CC(=O)N[C@H]4CC(C)C)C3)[C@H]2C)C1` [1lai-^tBu, (S)-4-(tert-butoxy)-5-((S)-sec-butyl)-1-((S)-1-((S)-1-((S)-1-((S)-2-isobutyl-5-oxo-2,5-dihydro-1H-pyrrol-3-yl)pyrrolidin-3-yl)-2-methyl-5-oxo-2,5-dihydro-1H-pyrrol-3-yl)pyrrolidin-3-yl)-1H-pyrrol-2(5H)-one]: 111 ± 18 µM, 2.6, 10.4±1.0 and 19.4 ± 4.1 µM.
`CC(C)C[C@H]1C(OC(C)(C)C)=CC(=O)N1[C@H]1CCN(C2=CC(=O)NC2Cc2ccccc2)C1` (stereo partly drawn) [2fl-^tBu, (5S)-1-((3S)-1-(2-benzyl-5-oxo-2,5-dihydro-1H-pyrrol-3-yl)pyrrolidin-3-yl)-4-(tert-butoxy)-5-isobutyl-1H-pyrrol-2(5H)-one] came in with an IC50 in assay [1] of 516 µM.
In the case of `CC(C)C[C@@H]1NC(=O)C=C1N1CC[C@H](N2C(=O)C=C(OC(C)(C)C)[C@@H]2C)C1` [2la-^tBu, (5S)-4-(tert-butoxy)-1-((3S)-1-(2-isobutyl-5-oxo-2,5-dihydro-1H-pyrrol-3-yl)pyrrolidin-3-yl)-5-methyl-1H-pyrrol-2(5H)-one], the IC50 in assay [1] amounted to 176 ± 16 µM.
Consider `C#CCN(C)CC1=Cc2ccccc2Oc2ccccc21` [CGP3466], for which, in assay [3], the “rescuing effect relative to deprenyl” value is listed as 100 ×.
For the compound `CC(C)C[C@H]1C(N2CC[C@H](N3C(=O)CC(=O)[C@@H]3C)C2)=CC(=O)N1[C@H]1CCN(C2=CC(=O)N[C@H]2Cc2ccccc2)C1` [Compound 1fla-H], the IC50 in assay [1] came out at 46.5 ± 8 µM. Further, in assay [2] (setting [6]), the “y-intercept of Zhang-Poorman plot” value is 0.73. For the same compound, the “slope of Zhang-Poorman plot” value in assay [2] (setting [7]) amounted to 9.3±1.2. Also, the Ki in assay [2] was 0.93 ± 0.3 µM.
The compound `CC[C@H](C)[C@H]1C(=O)CC(=O)N1[C@H]1CCN(C2=CC(=O)N([C@H]3CCN(C4=CC(=O)N[C@H]4CC(C)C)C3)[C@H]2C)C1` [Compound 1lai-H, (3′S,5S)-5-((S)-sec-butyl)-1′-((S)-1-((S)-1-((S)-2-Isobutyl-5-oxo-2,5-dihydro-1H-pyrrol-3-yl)pyrrolidin-3-yl)-2-methyl-5-oxo-2,5-dihydro-1H-pyrrol-3-yl)-[1,3′-bipyrrolidine]-2,4-dione] registered an IC50 in assay [1] of 3.7 ± 0.3 µM. Also, the “y-intercept of Zhang-Poorman plot” value in assay [2] (setting [6]) is 0.19. Also, in assay [2] (setting [7]), the “slope of Zhang-Poorman plot” value worked out at 8.2±0.6. In assay [2], the Ki is 0.38 ± 0.07 µM.
In turn, `CC(C)C[C@H]1C(=O)CC(=O)N1[C@H]1CCN(C2=CC(=O)N[C@H]2Cc2ccccc2)C1` [Compound 2fl-H, (3′S,5S)-1′-(2-benzyl-5-oxo-2,5-dihydro-1H-pyrrol-3-yl)-5-isobutyl-[1,3′-bipyrrolidine]-2,4-dione] came in with an IC50 in assay [1] of 419 µM.
For the compound `CC(C)C[C@@H]1NC(=O)C=C1N1CC[C@H](N2C(=O)CC(=O)[C@@H]2C)C1` [Compound 2la-H], in assay [1] (FRET assay, result in words), the “inhibition of HIV-1 protease” value is given as “did not show any inhibition”.
For `CC[C@H](C)C1C(=O)CC(=O)N1[C@H]1CCN(C2=CC(=O)N[C@H]2CC(C)C)C1` (stereo partly drawn) [Compound 2li-H], the IC50 in assay [1] is 623 µM.
`CC(C)C[C@@H]1NC(=O)C=C1N1CC[C@H](N2C(=O)C=C(NCCOCCOCCNC3=CC(=O)N([C@H]4CCN(C5=CC(=O)N[C@H]5CC(C)C)C4)[C@H]3C)[C@@H]2C)C1` [Compound 13]: the IC50 in assay [1] was 84.4 ± 10 µM. In assay [1] (comparison of IC50 values), the “inhibition of HIV-1 protease relative to 2la-^tBu” value is “two times better inhibition”.
